Earlier results as cited in patent publication US20240197726A1, “NOVEL TETRAHYDROISOQUINOLINE ALKALOID COMPOUND CONTAINING MACROCYCLE” (THE UNIVERSITY OF TOKYO, priority 2021, published 2024).
Where two headings read alike, the source gives them in different places.

Key:
Conditions in all cases: cited from earlier work
[1] = test system: MCF-7 breast cancer cells
[2] = test system: MDA-MB-231 breast cancer cells
[3] = test system: HT-29 colorectal cancer cells
[4] = test system: HCT-116 colorectal cancer cells
[5] = test system: NCI-H23 lung cancer cells
[6] = test system: NCI-H460 lung cancer cells
[7] = test system: A549 lung cancer cells

## COc1c(C)cc2c(c1C)[C@H]1N(C)[C@@](C)(C2)C(C)N2C1(C)[C@@H]1CCC3(CCCC4=C3Cc3ccc(C)cc34)C(=O)OC[C@@]2(C)c2c3c(c(C)c(C)c21)OCO3 (some centres unmarked) [drawing 159]
[1]; MCF-7 breast cancer cells, comparative value based on the literature, read-out: antitumor activity GI50 value: 50% growth inhibitory concentration
  GI50: 1.7 nM
[2]; MDA-MB-231 breast cancer cells, comparative value based on the literature, read-out: antitumor activity GI50 value: 50% growth inhibitory concentration
  GI50: 3.4 nM
[3]; HT-29 colorectal cancer cells, comparative value based on the literature, read-out: antitumor activity GI50 value: 50% growth inhibitory concentration
  GI50: 2.4 nM
[4]; HCT-116 colorectal cancer cells, comparative value based on the literature, read-out: antitumor activity GI50 value: 50% growth inhibitory concentration
  GI50: 6.4 nM
[5]; NCl-H23 lung cancer cells, comparative value based on the literature, read-out: antitumor activity GI50 value: 50% growth inhibitory concentration
  GI50: 5.3 nM
[6]; NCl--H460 lung cancer cells, comparative value based on the literature, read-out: antitumor activity GI50 value: 50% growth inhibitory concentration
  GI50: 1.5 nM
[7]; A549 lung cancer cells, comparative value based on the literature, read-out: antitumor activity GI50 value: 50% growth inhibitory concentration
  GI50: 1.3 nM

## COc1ccc2[nH]c3c(c2c1)CCN[C@]31CS[C@@H]2c3c(OC(C)=O)c(C)c4c(c3[C@H](COC1=O)N1[C@@H]2[C@H]2c3c(cc(C)c(OC)c3O)C[C@@H]([C@@H]1O)N2C)OCO4 [lurbinectedin, reference compound]
[1]; MCF-7, reference values from literature (Leal et al. Br. J Pharmacol, 2010), read-out: GI50 value: 50% growth inhibitory concentration
  GI50: 1.7 nM
[2]; MDA-MB-231, reference values from literature (Leal et al. Br. J Pharmacol, 2010), read-out: GI50 value: 50% growth inhibitory concentration
  GI50: 3.4 nM
[3]; HT-29, reference values from literature (Leal et al. Br. J Pharmacol, 2010), read-out: GI50 value: 50% growth inhibitory concentration
  GI50: 2.4 nM
[4]; HCT-116, reference values from literature (Leal et al. Br. J Pharmacol, 2010), read-out: GI50 value: 50% growth inhibitory concentration
  GI50: 6.4 nM
[5]; NCI-H23, reference values from literature (Leal et al. Br. J Pharmacol, 2010), read-out: GI50 value: 50% growth inhibitory concentration
  GI50: 5.3 nM
[6]; NCI-H460, reference values from literature (Leal et al. Br. J Pharmacol, 2010), read-out: GI50 value: 50% growth inhibitory concentration
  GI50: 1.5 nM
[7]; A549, reference values from literature (Leal et al. Br. J Pharmacol, 2010), read-out: GI50 value: 50% growth inhibitory concentration
  GI50: 1.3 nM
